pIC50: −log10 of the molar value.
molecular target: PDE 5 (Homo sapiens, UniProt O76074); assay: PDE 5 enzyme inhibition (PDE 5 IC50); type: biochemical

Row | SMILES | pIC50
1 | CCn1c(=O)c2c(nc(N[C@@H]3CCC[C@H]3O)n2Cc2ccc(OC)c(Br)c2)n(CC)c1=O [Compound 123] | ≥ 8.30
2 | CCn1c(=O)c2c(nc(N[C@@H]3CCCC[C@@H]3O)n2Cc2ccc(OC)c(Br)c2)n(CC)c1=O [Compound 124] | ≥ 8.30
3 | CCn1c(=O)c2c(nc(NC3CCCCC3)n2Cc2ccc(O)c(C)c2)n(CC)c1=O [Compound 169] | ≥ 8.30
4 | CCn1c(=O)c2c(nc(NC3CCCCC3)n2Cc2ccc(OC)cc2)n(CCO)c1=O [Compound 103] | ≥ 8.30
5 | CCn1c(=O)c2c(nc(NC3CCCCC3)n2Cc2ccc(OC)c(Br)c2)n(CCO)c1=O [Compound 117] | ≥ 8.30
6 | CCn1c(=O)c2c(nc(NC3CCOCC3)n2Cc2ccc(OC)c(Br)c2)n(CCO)c1=O [Compound 186] | ≥ 8.30
7 | CCn1c(=O)c2c(nc(NC3CCCCC3)n2Cc2ccc(O)c(Br)c2)n(CCO)c1=O [Compound 116] | ≥ 8.30
8 | CCn1c(=O)c2c(nc(NC3CCCCC3)n2Cc2ccc(S(N)(=O)=O)cc2)n(CC)c1=O [Compound 119] | ≥ 8.30
9 | CCn1c(=O)c2c(nc(NC3CCCCC3)n2Cc2ccc3c(c2)OCO3)n(CC)c1=O [Compound 168] | ≥ 8.30
10 | COc1ccc(Cn2c(NC3CC4CCC3C4)nc3c2c(=O)n(C)c(=O)n3C)cc1 (stereo not drawn) [Compound 77] | 7.00 to 7.82
11 | CCn1c(=O)c2c(nc(NC3CCCCC3)n2Cc2ccc(OC)c(Br)c2)n(CC)c1=O [Compound 122] | ≥ 8.30
12 | Cn1c(=O)c2c(nc(NC3CCCCC3)n2Cc2ccccc2Cl)n(C)c1=O [Compound 148] | 7.00 to 7.82
13 | CCn1c(=O)c2c(nc(NC3CCCCC3)n2Cc2ccc(O)c(Cl)c2)n(CCO)c1=O [Compound 107] | ≥ 8.30
14 | CCn1c(=O)c2c(nc(NC3CCCCC3)n2Cc2ccc(O)cc2)n(CCO)c1=O [Compound 104] | ≥ 8.30
15 | CCn1c(=O)c2c(nc(NC3CCCCC3)n2Cc2cccc(O)c2)n(CC)c1=O [Compound 170] | ≥ 8.30
16 | CCn1c(=O)c2c(nc(NC3CCCC3)n2Cc2ccc(O)cc2)n(C)c1=O [Compound 79] | 8.00 to 8.30
17 | CCn1c(=O)c2c(nc(NC3CCCCC3)n2Cc2ccc(OC)c(Cl)c2)n(CCO)c1=O [Compound 105] | ≥ 8.30
18 | CCn1c(=O)c2c(nc(NC3CCOCC3)n2Cc2ccc(S(N)(=O)=O)cc2)n(CC)c1=O [Compound 188] | ≥ 8.30
19 | CCN(CC)CCn1c(=O)n(CC)c(=O)c2c1nc(NC1CCCCC1)n2Cc1ccc(OC)c(Br)c1 [Compound 187] | ≥ 8.30
20 | Cc1cc(Cn2c(NC3CCCCC3)nc3c2c(=O)n(C)c(=O)n3C)ccc1O [Compound 147] | 7.00 to 7.82
21 | CCn1c(=O)c2c(nc(N[C@@H]3CCC[C@H]3O)n2Cc2ccc(OC)c(Cl)c2)n(CCO)c1=O [Compound 106] | ≥ 8.30
22 | CCn1c(=O)c2c(nc(N[C@@H]3CCC[C@H]3O)n2Cc2ccc(O)c(Br)c2)n(CCO)c1=O [Compound 118] | ≥ 8.30
23 | Cn1c(=O)c2c(nc(NC3CCCCC3)n2Cc2cccc(O)c2)n(C)c1=O [Compound 146] | 7.00 to 7.82
24 | Cn1c(=O)c2c(nc(NC3CCCCC3)n2Cc2ccc(O)cc2)n(C)c1=O [Compound 37] | 8.00 to 8.30
